Experimental findings from patent US9200008B2 (ASKA PHARMACEUTICAL CO., LTD., priority 2010, dated 2015) are described below.

For this experiment, the system named is Human prostate cancer cell lines (PC-3 cells). Briefly: Measurement of cell death-inducing activity (Test Example 1). It counts as cell-based. As to conditions: PC-3, 48 h, 48 hours after addition, tested at 10, 1, 0.1, 0.025 and 0.00625 μmol/L, qualitative evaluation of 10 fields, read-out: Concentration showing the cell death-inducing activity (cell death-inducing rate not less than 40%). The method in brief: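 PC-3 cells seeded at 1×10^5 cells/well and grown 48 h at 37 °C, 5% CO2, then exposed to compound at 10, 1, 0.1, 0.025 and 0.00625 μmol/L (DMSO control) for a further 48 h. Activity was called where cell death-inducing rate was not less than 40%.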

Regarding `CCCOc1ccccc1-c1nc(C)c(C(=O)N/N=C/c2ccc(OC)c(O)c2)s1` [Example 23-48], the minimal effective concentration turned out to be 0.1 µM.

As to `COc1cc(Cl)ccc1-c1nc(C)c(NC(=O)OCc2ccc3nn(C)cc3c2)s1` [Example 9-144], the minimal effective concentration was determined as 0.025 µM.

For the compound `CCn1cnc2cc(COC(=O)Nc3sc(-c4ccc(OC)cc4OC)nc3C)ccc21` [Example 9-61], the minimal effective concentration stood at 0.00625 µM.

For `COc1cc(Cl)ccc1-c1nc(C)c(C(=O)N/N=C/c2ccc(O)cc2)s1` [Example 23-75], the minimal effective concentration was 1 µM.

Consider `Cc1ccc(-c2cc(COC(=O)Nc3ccc4c(cnn4C)c3)n(C)n2)c(C)c1` [Example 13-131], for which the minimal effective concentration stood at 1 µM.

`COc1cc(C)ccc1-c1nc(C)c(NC(=O)OCc2ccc3sc(C)nc3c2)s1` [Example 37-2]: the minimal effective concentration is 1 µM.

As to `COc1ccc(/C=N/NC(=O)c2sc(-c3ccc(C)cc3C)nc2C)cc1O` [Example 23-44], the minimal effective concentration came to 0.1 µM.

For the compound `Cc1ccc(-c2nc(C)c(NC(=O)OCc3ccc4c(c3)nc3n4CCOC3)s2)c(C)c1` [Example 9-96], the minimal effective concentration is 0.00625 µM.

`CCc1nc(-c2ccc(C)cc2OC)sc1NC(=O)OCc1ccc2c(c1)ncn2CC` [Example 9-165]: the minimal effective concentration amounted to 0.00625 µM.

As for `COc1cc(Cl)ccc1-c1cc(COC(=O)Nc2ccc3c(c2)CCO3)n(C)n1` [Example 13-73], the minimal effective concentration turned out to be 10 µM.

Consider `COc1ccccc1-c1nc(C)c(NC(=O)OCc2ccc(SC)cc2)s1` [Example 9-5], for which the minimal effective concentration amounted to 10 µM.

For `COc1cc(F)ccc1-c1cc(COC(=O)Nc2ccc3c(cnn3C)c2)n(C)n1` [Example 13-125], the minimal effective concentration came to 1 µM.

Regarding `COc1cc(Cl)ccc1-c1nc(C)c(C(=O)N/N=C/c2ccc(O)c(C)c2)s1` [Example 23-76], the minimal effective concentration came out at 1 µM.

As to `Cc1ccc(-c2nc(C)c(NC(=O)OCc3ccc4nn(C)cc4c3)s2)c(C)c1` [Example 9-147], the minimal effective concentration is 0.025 µM.

Regarding `COc1cc(Cl)ccc1-c1cc(NC(=O)OCc2ccc3nn(C)cc3c2)n(C)n1` [Example 9-291], the minimal effective concentration was 0.025 µM.

For `COc1ccc(/C=N/NC(=O)c2sc(-c3ccccc3F)nc2C)cc1` [Example 23-65], the minimal effective concentration is 1 µM.

Regarding `CCc1nc(-c2ccc(Cl)cc2OC)sc1NC(=O)OCc1ccc2c(c1)ncn2CC` [Example 9-164], the minimal effective concentration was determined as 0.025 µM.

For the compound `CCn1nc(-c2ccccc2OC)cc1NC(=O)OCc1ccc2c(c1)nc1n2CCOC1` [Example 9-244], the minimal effective concentration turned out to be 1 µM.

Take `CCN(Cc1ccc(OC)cc1)NC(=O)c1sc(-c2ccc(Cl)cc2OC)nc1C` [Example 16-13]: the minimal effective concentration came to 0.1 µM.

Consider `CCc1nc(-c2ccc(Cl)cc2C)sc1NC(=O)OCc1ccc2nn(CC)cc2c1` [Example 9-370], for which the minimal effective concentration is 0.1 µM.

Consider `CCn1cc2ccc(COC(=O)Nc3cc(-c4ccc(Cl)cc4OC)nn3C)cc2n1` [Example 9-301], for which the minimal effective concentration is 0.025 µM.

With `COc1ccc(-c2nc(-c3ccccc3C)sc2C(=O)N/N=C/c2cc(C)c(O)c(C)c2)cc1` [Example 23-162], the minimal effective concentration worked out at 1 µM.

Consider `COc1ccc(/C=N/NC(=O)c2sc(-c3ccccc3C(F)(F)F)nc2C)cc1O` [Example 23-13], for which the minimal effective concentration amounted to 1 µM.

Take `Cc1ccc(-c2cc(NC(=O)OCc3ccc4c(c3)nc3n4CCCC3)n(C)n2)c(C)c1` [Example 9-271]: the minimal effective concentration came out at 0.1 µM.

Regarding `COc1ccc(-c2nc(C)c(NC(=O)OCc3ccc4nn(C)cc4c3)s2)c(OC)c1` [Example 9-146], the minimal effective concentration was determined as 0.1 µM.

Take `CCn1ncc2ccc(COC(=O)Nc3cc(-c4ccc(Cl)cc4OC)nn3C)cc21` [Example 9-298]: the minimal effective concentration stood at 10 µM.

As to `Cc1ccc(-c2nc(C)c(COC(=O)Nc3ccc4c(c3)nc3n4CCC3)s2)c(C)c1` [Example 13-28], the minimal effective concentration is 0.025 µM.
